Where “and” joins values, the source holds several entries; their conditions need not be identical. Equal values may be shown once.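 In this assay, cells in 96-well plates receive the compound at five concentrations for 48 hours. Endpoints are linearly interpolated between the surrounding concentrations. At the GI50, growth is halved. TGI is the concentration that stops growth completely.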

This passage reports TGI and GI50 results from PubChem BioAssay (NCI).

Common to all, as to experiment: NCI tumour cell line growth inhibition, 48 h
The test system of experiment [1] is TK-10 renal.
Experiment [2] relates to A498 renal.
Experiment [3] deals with SF-295 CNS.
The subject of experiment [4] is HCT-116 colon.
Experiment [5] deals with OVCAR-4 ovarian.
For experiment [6], the system named is HOP-62 NSCLC.
Experiment [7] has as its system K-562 leukemia.
Experiment [8] concerns OVCAR-3 ovarian.
Experiment [9] has as its system M14 melanoma.
Experiment [10] concerns NCI-H522 lung.

Take `O=CN1CCC23CC(O)CCC2C1Cc1cc(Oc2nnnn2-c2ccccc2)cc(O)c13` (stereo not drawn): the TGI in experiment [1], in experiment [2], in [3], in experiment [4], in [5] and in experiment [6] was greater than 100 µM throughout. Further, the TGI in experiment [7], in experiment [8], in experiment [9] and in experiment [10] was greater than 100 µM throughout.
Turning to `COc1cc(C2C(=O)C(Cl)N2Nc2nc(C)cc(=O)[nH]2)cc(OC)c1OC` (stereo not drawn), the TGI in [1] is greater than 100 µM; in experiment [4], 49.7 µM; in experiment [5], 56.2 µM; in experiment [6], greater than 100 µM; in [7] it was 41.1 µM; in experiment [8], 45.1 µM. The molecule further returned a TGI in [9] of 26.5 µM.
Take `CCOC(=O)C12CC(C)=C(C)CC1CCCc1ccccc12` (stereo not drawn): the TGI in experiment [1] is 77.8 µM; in experiment [2] it was 62.7 µM; in experiment [3] it was 86.3 µM; in experiment [4], 34.3 µM; in experiment [5] it was greater than 100 µM; in [6], greater than 100 µM. Besides, the TGI was 78.2 µM in [7], 42.6 µM in experiment [8], greater than 100 µM in [9] and 39.5 µM in experiment [10].
In the case of `O=S(=O)(O)c1ccc2c(N=Nc3ccccc3)c(O)ccc2c1`, the TGI in [1], in experiment [2], in experiment [3], in experiment [4], in [5] and in experiment [6] was greater than 100 µM each time. Also, the TGI in experiment [7], in [8], in experiment [9] and in experiment [10] was greater than 100 µM each time.
As to `C[C@H]1CCC/C=C/[C@@H]2C[C@H](O)C[C@H]2[C@H](O)/C=C/C(=O)O1`, the TGI in experiment [1] is 2.57 µM and 0.362 µM and 1 µM; in experiment [2] it was 0.0821 µM and 0.0376 µM; in experiment [4] it was 0.0478 µM and 0.0573 µM and 0.152 µM; in experiment [5] it was 5.62 µM and > 49.1 µM; in experiment [6] it was 9.24 µM and 4.21 µM; in experiment [9] it was 6.57 µM and 0.738 µM. Moreover, the TGI in experiment [10] was 0.208 µM and 0.213 µM and 0.354 µM. Besides, the GI50 in [2] is less than 0.0149 µM; in [3], < 0.0181 µM and 0.0524 µM and 0.12 µM; in experiment [4] it was 0.0115 µM and 0.056 µM; in experiment [5], 0.0312 µM; in experiment [6] it was 0.0216 µM and 0.0722 µM and 0.0915 µM; in experiment [7] it was 0.236 µM. Also, the GI50 is 0.0382 µM in [8]; 0.044 µM and 0.0952 µM and 0.115 µM in experiment [10].
`O=C(CSSCC(=O)OCCS(=O)(=O)Nc1ccc(Br)cc1)OCCS(=O)(=O)Nc1ccc(Br)cc1`: the TGI in [1] was 87.8 µM; in [2], 39.8 µM; in experiment [3] it was greater than 100 µM; in experiment [5], 33 µM; in experiment [7], greater than 100 µM; in experiment [8], 37.6 µM. The TGI in [9] came out at 39.1 µM; in experiment [10], 24 µM.
Take `COc1cc(/C=C2\N=C(c3ccccc3)N(c3nc4ccc(Sc5ccccc5)cc4[nH]3)C2=O)cc(OC)c1OC`: the TGI in experiment [1] was 57.4 µM; in [2], 71.8 µM; in experiment [3], 90.1 µM; in [4], 55.2 µM; in experiment [5], greater than 100 µM; in [6] it was greater than 100 µM. The TGI in experiment [7] was 48.1 µM; in [8] it was greater than 100 µM; in experiment [9], 49.7 µM; in experiment [10] it was 48 µM.
For the molecule `O=C1CS(=O)(=O)C(c2cccc(Oc3ccccc3)c2)N1C1CC1` (stereo not drawn), the TGI in [1] was greater than 100 µM; in [3], greater than 100 µM; in [4], greater than 100 µM; in experiment [5], 64.2 µM; in [7], greater than 100 µM; in experiment [8], greater than 100 µM. Also, the TGI in [9] and in [10] was greater than 100 µM each time.
As for `N=C(N)c1ccc(N=Nc2c(O)ccc3cc4c(N=Nc5ccc(C(=N)N)cc5)c(O)ccc4cc23)cc1`, the TGI in experiment [1], in experiment [3], in [4], in experiment [5], in [6] and in [7] was greater than 100 µM each time. Besides, the TGI in [8], in experiment [9] and in experiment [10] was greater than 100 µM throughout.
With `COc1ccc(N=Nc2c(N)nn(C)c2N)cc1`, the TGI in experiment [1], in [2], in [3], in [4], in experiment [5] and in experiment [6] was greater than 100 µM each time. Besides, the TGI in experiment [7], in [8], in experiment [9] and in [10] was greater than 100 µM throughout.
Take `COc1cccc(NC(=O)CC(=O)NN2C(=O)/C(=C/c3ccc(N(CCC#N)CCC#N)cc3)N=C2c2cc([N+](=O)[O-])ccc2Cl)c1`: the TGI in [1], in experiment [3], in experiment [4], in [5], in experiment [6] and in [7] was greater than 100 µM throughout. Besides, the TGI in experiment [8], in experiment [9] and in [10] was greater than 100 µM each time.
Regarding `COC(=O)c1ccc2c(c1)sc1nc(-c3ccc(OC)cc3)cn12`, the TGI in experiment [1], in [2], in experiment [3], in [4], in [5] and in experiment [6] was greater than 100 µM in each case. Further, the TGI in experiment [7], in [8], in experiment [9] and in [10] was greater than 100 µM each time.
Take `O=C(O)CCCN=C(C1=C(O)C(=O)N(c2ccccc2)C1=O)c1ccccc1`: the TGI in [1], in experiment [3], in experiment [4], in experiment [5], in experiment [6] and in experiment [7] was greater than 100 µM in each case. Moreover, the TGI in experiment [8], in [9] and in [10] was greater than 100 µM throughout.
`O=c1c(-c2ccccc2)c(SCCN2CCOCC2)n(-c2ccccc2)c(=S)n1-c1ccccc1`: the TGI in experiment [1], in experiment [2], in [3], in experiment [5], in [6] and in experiment [7] was greater than 100 µM each time. The TGI in [8] and in experiment [10] was greater than 100 µM throughout.
